Measured values from patent publication US8367666B2 (priority 2004, dated 2013).

Test system: respiratory function after cigarette smoke exposure
Experiment: Cigarette smoke exposure, deterioration of guinea pig's breath function (COPD model)
Assay type: in vivo, Hartley guinea pig
Details: 30 mg/kg a day, oral, Student t-test
Method: The main current smoke of a cigarette with a filter tip commercially available (Highlight, nicotine 1.4 mg content, and tar 17 mg content, Japan Tabaco Inc.) was exposed to the nose and the mouth of a Hartley guinea pig (obtained from Japan SLC Co., Ltd.) at the rate of 30 pieces of the cigarettes a day for five days a week during 30 days with a cigarette smoke exposure device for an animal (manufactured by […] Co., Ltd.). (Wright J L, Churg A. Cigarette smoke causes physiologic and morphologic changes of emphysema in the guinea pig Am. Rev. Respir. Dis. 1990 142:1422-8). […] After 16 to 24 hours had passed from the final cigarette smoke exposure, the trachea incision of the guinea pig was conducted under urethane ([…], i.p.) anesthesia, and a cannula was intubated and installed in a respiratory function measuring device system, a maneuver (manufactured by Baxco Co., Ltd.) for small animals. The respiratory function of the guinea pig was measured according to the protocol of the maneuver. In the medium administered control group and the medicine administered group, the amount of a functional residual air, the increase in the total lung capacity, and the decrease in the dynamic lung compliance by the cigarette smoke exposure were compared and the test of the significant difference was conducted. The data will be shown by the average±the standard deviation. […]

COC(=O)C(NC(=O)c1cc2c(n(CC=O)c1=O)CCCCCC2)C(C)C (centres unmarked) [(1), methyl 3-methyl-2-{[2-oxo-1-(2-oxo-ethyl)-1,2,5,6,7,8,9,10-octahydro-cycloocta[b]pyridine-3-carbonyl]-amino}-butyrate]
increase in the amount of a functional residual air by the cigarette smoke exposure, difference to medium group: significant difference of P<0.05
increase in the total lung capacity by the cigarette smoke exposure, difference to medium group: significant difference of P<0.05
